Test results as given in patent US20180370927A1, “MICROBIOCIDAL OXADIAZOLE DERIVATIVES” (SYNGENTA PARTICIPATIONS AG, priority 2015, published 2018).

How the values were obtained:
Phakopsora pachyrhizi = Phakopsora pachyrhizi / soybean / leaf disc preventative (Asian soybean rust); assay type: in vivo; details: foliar, 200 ppm in the applied formulation, soybean leaf disks, assessed 12 to 14 days after application, read-out: disease control compared to untreated control leaf disks
Method: (§1) Leaf disks or leaf segments of various plant species are cut from plants grown in a greenhouse. The cut leaf disks or segments are placed in multiwell plates (24-well format) onto water agar. The leaf disks are sprayed with a test solution before (preventative) or after (curative) inoculation. Compounds to be tested are prepared as DMSO solutions (max. 10 mg/mL) which are diluted to the appropriate concentration with 0.025% Tween20 just before spraying. The inoculated leaf disks or segments are incubated under defined conditions (temperature, relative humidity, light, etc.) according to the respective test system. A single evaluation of disease level is carried out 3 to 14 days after inoculation, depending on the pathosystem. Percent disease control relative to the untreated check leaf disks or segments is then calculated.
Example 3: Fungicidal Activity Against Phakopsora pachyrhizi/Soybean/Leaf Disc Preventative (Asian Soybean Rust)
Soybean leaf disks are placed on water agar in multiwell plates (24-well format) and sprayed with the formulated test compound diluted in water. One day after application leaf discs are inoculated by spraying a spore suspension on the lower leaf surface. After an incubation period in a climate cabinet of 24-36 hours in darkness at 20° C. and 75% relative humidity leaf disc are kept at 20° C. with 12 hours light/day and 75% relative humidity. The activity of a compound is assessed as percent disease control compared to untreated when an appropriate level of disease damage appears in untreated check leaf disks (12 to 14 days after application).
(§2) The following compounds at 200 ppm in the applied formulation give at least 80% disease control in this test when compared to untreated control leaf disks under the same conditions, which show extensive disease development.

[1] = system: Glomerella lacenarium (Colletotrichum lacenarium); assay: Glomerella lacenarium (Colletotrichum lacenarium) liquid culture / cucumber / preventative (anthracnose); assay type: cell-based; details: 20 ppm in the applied formulation, liquid culture in PDB, 24° C., 3 to 4 days after application, read-out: disease control (inhibition of growth, photometric) compared to untreated control
Method in brief: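 At 20 ppm in the applied formulation, compounds were mixed with fungal spores in potato dextrose broth and held at 24° C. After 3–4 days, photometric growth measurement gave percent antifungal activity relative to untreated control.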

[2] = system: Puccinia recondita f. Sp. Tritici; assay: Puccinia recondita f. sp. tritici / wheat / leaf disc preventative (brown rust); assay type: in vivo; details: foliar, 200 ppm in the applied formulation, wheat leaf segments, preventative, assessed 7 to 9 days after application, read-out: disease control compared to untreated control leaf disks
Method in brief: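 Wheat cv. Kanzler leaf segments on agar sprayed with formulated compound in water, inoculated with rust spores 1 day later. Incubated at 19° C, 75% rh, 12 h light/12 h dark; percent disease control versus untreated scored 7 to 9 days after application; tested at 200 ppm.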

[3] = system: Puccinia recondita f. Sp. Tritici; assay: Puccinia recondita f. sp. tritici / wheat / leaf disc curative (brown rust); assay type: in vivo; details: foliar, 200 ppm in the applied formulation, wheat leaf segments, curative (applied 1 day after inoculation), assessed 6 to 8 days after application, read-out: disease control compared to untreated control leaf disks
Method: as §1
Example 2: Fungicidal Activity Against Puccinia recondita f. Sp. Tritici/Wheat/Leaf Disc Curative (Brown Rust)
Wheat leaf segments cv. Kanzler are placed on agar in multiwell plates (24-well format). The leaf segments are then inoculated with a spore suspension of the fungus. Plates were stored in darkness at 19° C. and 75% relative humidity. The formulated test compound diluted in water was applied 1 day after inoculation. The leaf segments were incubated at 19° C. and 75% relative humidity under a light regime of 12 hours light/12 hours darkness in a climate cabinet and the activity of a compound was assessed as percent disease control compared to untreated when an appropriate level of disease damage appears in untreated check leaf segments (6 to 8 days after application).
as §2

Structure (SMILES) | pest or weed control at 200 ppm (Phakopsora pachyrhizi) | inhibition at 20 ppm [1] | pest or weed control at 200 ppm [2] | pest or weed control at 200 ppm [3]
NC(=O)C(=O)NCc1ccc(-c2noc(C(F)(F)F)n2)c(F)c1F [Compound 4.84, N′-[[2,3-difluoro-4-[5-(trifluoromethyl)-1,2,4-oxadiazol-3-yl]phenyl]methyl] oxamide] | ≥ 80% | ≥ 80% |  | 
Cc1cc(-c2noc(C(F)(F)F)n2)ccc1CNC(=O)C(=O)c1ccco1 [Compound 1.86] | ≥ 80% |  | ≥ 80% | 
Cc1cc(-c2noc(C(F)(F)F)n2)ccc1CNC(=O)C(=O)c1ccccc1 [Compound 1.65, N-[[2-methyl-4-[5-(trifluoromethyl)-1,2,4-oxadiazol-3-yl]phenyl]methyl]-2-oxo-2-phenyl-acetamide] | ≥ 80% |  | ≥ 80% | 
O=C(NCc1ccc(-c2noc(C(F)(F)F)n2)c(F)c1)C(=O)c1ccccc1 [Compound 1.42, N-[[3-fluoro-4-[5-(trifluoromethyl)-1,2,4-oxadiazol-3-yl]phenyl]methyl]-2-oxo-2-phenyl-acetamide] | ≥ 80% | ≥ 80% | ≥ 80% | 
O=C(NCc1c(F)cc(-c2noc(C(F)(F)F)n2)cc1F)C(=O)c1ccccc1 [Compound 1.68, N-[[2,6-difluoro-4-[5-(trifluoromethyl)-1,2,4-oxadiazol-3-yl]phenyl]methyl]-2-oxo-2-phenyl-acetamide] | ≥ 80% | ≥ 80% | ≥ 80% | 
CON(Cc1ccc(-c2noc(C(F)(F)F)n2)cc1F)C(=O)C(=O)c1ccccc1 [Compound 1.54, N-[[2-fluoro-4-[5-(trifluoromethyl)-1,2,4-oxadiazol-3-yl]phenyl]methyl]-N-methoxy-2-oxo-2-phenyl-acetamide] | ≥ 80% | ≥ 80% | ≥ 80% | 
O=C(NCc1ccc(-c2noc(C(F)(F)F)n2)c(F)c1F)C(=O)c1ccco1 [Compound 1.81, N-[[2,3-difluoro-4-[5-(trifluoromethyl)-1,2,4-oxadiazol-3-yl]phenyl]methyl]-2-(2-furyl)-2-oxo-acetamide] | ≥ 80% | ≥ 80% |  | 
CON(Cc1ccc(-c2noc(C(F)(F)F)n2)cc1F)C(=O)C(=O)C(C)(C)C [Compound 1.57, N-[[2-fluoro-4-[5-(trifluoromethyl)-1,2,4-oxadiazol-3-yl]phenyl]methyl]-N-methoxy-3,3-dimethyl-2-oxo-butanamide] | ≥ 80% | ≥ 80% | ≥ 80% | 
CCCCON(Cc1ccc(-c2noc(C(F)(F)F)n2)cc1)C(=O)C(N)=O [Compound 4.87, N′-butoxy-N′-[[4-[5-(trifluoromethyl)-1,2,4-oxadiazol-3-yl]phenyl]methyl] oxamide] | ≥ 80% | ≥ 80% | ≥ 80% | 
O=C(NCc1ccc(-c2noc(C(F)(F)F)n2)cc1Cl)C(=O)c1ccco1 [Compound 1.84, N-[[2-chloro-4-[5-(trifluoromethyl)-1,2,4-oxadiazol-3-yl]phenyl]methyl]-2-(2-furyl)-2-oxo-acetamide] | ≥ 80% | ≥ 80% | ≥ 80% | 
Cc1cc(-c2noc(C(F)(F)F)n2)ccc1CNC(=O)C(=O)C(C)(C)C [Compound 1.67, 3,3-dimethyl-N-[[2-methyl-4-[5-(trifluoromethyl)-1,2,4-oxadiazol-3-yl]phenyl]methyl]-2-oxo-butanamide] | ≥ 80% | ≥ 80% |  | 
CCCC(=O)C(=O)N(Cc1ccc(-c2noc(C(F)(F)F)n2)cc1)CC1CC1 [Compound 1.6, N-(cyclopropyl-methyl)-2-oxo-N-[[4-[5-(trifluoromethyl)-1,2,4-oxadiazol-3-yl]phenyl]methyl]pentanamide] | ≥ 80% | ≥ 80% |  | 
CON(Cc1ccc(-c2noc(C(F)(F)F)n2)cc1F)C(=O)C(=O)c1cccs1 [Compound 1.56, N-[[2-fluoro-4-[5-(trifluoromethyl)-1,2,4-oxadiazol-3-yl]phenyl]methyl]-N-methoxy-2-oxo-2-(2-thienyl)acetamide] | ≥ 80% | ≥ 80% | ≥ 80% | 
O=C(NCc1ccc(-c2noc(C(F)(F)F)n2)cc1Cl)C(=O)c1cccs1 [Compound 1.62, N-[[2-chloro-4-[5-(trifluoromethyl)-1,2,4-oxadiazol-3-yl]phenyl]methyl]-2-oxo-2-(2-thienyl)acetamide] | ≥ 80% | ≥ 80% | ≥ 80% | 
CCCCON(Cc1ccc(-c2noc(C(F)(F)F)n2)cc1)C(=O)C(=O)CC [Compound 1.30, N-butoxy-2-oxo-N-[[4-[5-(trifluoromethyl)-1,2,4-oxadiazol-3-yl]phenyl]methyl]butanamide] | ≥ 80% | ≥ 80% |  | 
NC(=O)C(=O)NCCc1ccc(-c2noc(C(F)(F)F)n2)cc1 [Compound 4.85, N′-[2-[4-[5-(trifluoromethyl)-1,2,4-oxadiazol-3-yl]phenyl]ethyl] oxamide] | ≥ 80% | ≥ 80% |  | 
CCC(=O)C(=O)N(C)c1ccc(-c2noc(C(F)(F)F)n2)cc1 [Compound 1.34, N-methyl-2-oxo-[4-[5-(trifluoromethyl)-1,2,4-oxadiazol-3-yl]phenyl]butanamide] | ≥ 80% |  |  | 
Cc1cc(-c2noc(C(F)(F)F)n2)ccc1CNC(=O)C(=O)c1cccs1 [Compound 1.66, N-[[2-methyl-4-[5-(trifluoromethyl)-1,2,4-oxadiazol-3-yl]phenyl]methyl]-2-oxo-2-(2-thienyl)acetamide] | ≥ 80% |  | ≥ 80% | 
CON(Cc1ccc(-c2noc(C(F)(F)F)n2)cc1)C(=O)C(=O)c1cccs1 [Compound 1.73, N-methoxy-2-oxo-2-(2-thienyl)-N-[[4-[5-(trifluoromethyl)-1,2,4-oxadiazol-3-yl]phenyl]methyl]acetamide] | ≥ 80% | ≥ 80% | ≥ 80% | 
O=C(NCC1COCCO1)C(=O)Nc1ccc(-c2noc(C(F)(F)F)n2)cc1 (centres unmarked) [Compound 4.19, N-(1,4-dioxan-2-ylmethyl)-N′-[4-[5-(trifluoromethyl)-1,2,4-oxadiazol-3-yl]phenyl]oxamide] | ≥ 80% |  | ≥ 80% | 
CC(C)CC(=O)C(=O)NCc1ccc(-c2noc(C(F)(F)F)n2)cc1Cl [Compound 1.61, N-[[2-chloro-4-[5-(trifluoromethyl)-1,2,4-oxadiazol-3-yl]phenyl]methyl]-4-methyl-2-oxo-pentanamide] | ≥ 80% |  | ≥ 80% | 
CON(Cc1ccc(-c2noc(C(F)(F)F)n2)cc1)C(=O)C(=O)NC(C)(C)C [Compound 4.75, N-tert-butyl-N′-methoxy-N′-[[4-[5-(trifluoromethyl)-1,2,4-oxadiazol-3-yl]phenyl]methyl] oxamide] |  | ≥ 80% | ≥ 80% | ≥ 80%
CCC(C)NC(=O)C(=O)N(Cc1ccc(-c2noc(C(F)(F)F)n2)cc1)OC (centres unmarked) [Compound 4.61, N′-methoxy-N-sec-butyl-N′-[[4-[5-(trifluoromethyl)-1,2,4-oxadiazol-3-yl]phenyl]methyl] oxamide] |  | ≥ 80% | ≥ 80% | ≥ 80%
